Data reported in patent publication US20220041641A1, “QUATERNARY AMMONIUM SALTS AS INHIBITORS OF TRIMETHYLAMINE PRODUCTION” (Senda Biosciences, Inc., priority 2018, published 2022).
Counter-ions that a name gives are not always drawn. Like-named read-outs stand apart in the source and are kept apart here.

Key:
[1] = molecular target: CutC from Clostridium sporogenes (Clostridium sporogenes, UniProt A0AAE4Z0A8); assay: Cell-based assay for TMA production from a native producer (C. sporogenes); details: read-out: IC50 Whole cell C. sporogenes; d9-TMA from 1 mM d9-choline, 5 h, 37° C.; run once; value 10 given when no fit or % TMA remaining at 10 μM higher than 15%
CutC from Clostridium sporogenes, sequence (A0ABD6RTF0 entry or part of it): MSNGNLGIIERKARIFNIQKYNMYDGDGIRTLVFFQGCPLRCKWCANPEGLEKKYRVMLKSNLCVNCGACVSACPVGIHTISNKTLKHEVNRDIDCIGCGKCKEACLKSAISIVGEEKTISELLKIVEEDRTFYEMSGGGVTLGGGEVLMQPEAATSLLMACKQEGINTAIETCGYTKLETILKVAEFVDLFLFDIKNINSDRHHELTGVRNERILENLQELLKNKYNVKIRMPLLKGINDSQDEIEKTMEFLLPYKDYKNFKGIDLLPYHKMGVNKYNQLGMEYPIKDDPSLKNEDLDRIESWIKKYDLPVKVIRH
CutC from Clostridium sporogenes, sequence (A0AAE4Z0A8 entry or part of it): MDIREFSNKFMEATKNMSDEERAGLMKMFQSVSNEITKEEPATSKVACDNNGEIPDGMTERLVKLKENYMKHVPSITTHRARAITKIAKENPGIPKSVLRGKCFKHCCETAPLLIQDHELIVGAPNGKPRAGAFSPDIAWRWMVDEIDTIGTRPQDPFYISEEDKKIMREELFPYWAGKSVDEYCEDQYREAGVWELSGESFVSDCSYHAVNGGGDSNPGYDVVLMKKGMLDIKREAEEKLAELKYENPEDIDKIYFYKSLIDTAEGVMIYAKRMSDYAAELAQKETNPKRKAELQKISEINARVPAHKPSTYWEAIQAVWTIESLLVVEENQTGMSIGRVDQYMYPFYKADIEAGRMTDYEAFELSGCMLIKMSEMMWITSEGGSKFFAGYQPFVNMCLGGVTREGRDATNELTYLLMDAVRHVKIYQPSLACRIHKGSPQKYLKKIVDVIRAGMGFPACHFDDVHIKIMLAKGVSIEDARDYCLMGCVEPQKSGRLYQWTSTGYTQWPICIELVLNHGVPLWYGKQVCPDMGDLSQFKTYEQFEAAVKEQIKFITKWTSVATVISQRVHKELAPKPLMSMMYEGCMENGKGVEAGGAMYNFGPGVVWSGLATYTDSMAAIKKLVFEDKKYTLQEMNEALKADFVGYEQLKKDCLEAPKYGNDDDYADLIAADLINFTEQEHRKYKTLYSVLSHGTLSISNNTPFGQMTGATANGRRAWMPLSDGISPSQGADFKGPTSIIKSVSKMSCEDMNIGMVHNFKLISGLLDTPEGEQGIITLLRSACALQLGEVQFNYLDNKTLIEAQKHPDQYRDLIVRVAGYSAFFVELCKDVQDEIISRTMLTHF
Text: (§1) In each bacterium, CutC was modified into its activated form by a cognate activating enzyme, CutD (protein EDU36696.1 for C. sporogenes; protein WP_004249185.1 for P. mirabilis). […] Trimethylamine may subsequently be converted by human enzymes such as flavin monooxygenase 3 to trimethylamine N-oxide, which might be associated with negative health consequences in humans.
(§2) A compound's ability to inhibit CutC from Proteus mirabilis and C. sporogenes from converting choline into trimethylamine was tested in cells as described. A BHI blood plate was inoculated with a frozen stock of Proteus mirabilis or Clostridium sporogenes under anaerobic conditions. A single colony was isolated from the plate and inoculated into 5 mL BHI supplemented with 1 mM choline under anaerobic conditions. The liquid cultures were grown overnight at 37° C.
(§3) To prepare each sample, 300 μL of the saturated culture was then inoculated into a 30 mL dilution blank under anaerobic conditions. 1 mM (trimethyl-d9)-choline and a sufficient amount of a compound to obtain a final concentration of 10 μM were added to the inoculated dilution blank. […] The mixture was incubated at 37° C. for 5 h. […] After centrifugation, the samples were analyzed by LCMS to determine the amount of d9-TMA produced.

[2] = molecular target: CutC from Proteus mirabilis (Proteus mirabilis, UniProt B4EYG1); assay: Cell-based assay for TMA production from a native producer (P. mirabilis)
CutC from Proteus mirabilis, sequence (B4EYG1 entry or part of it): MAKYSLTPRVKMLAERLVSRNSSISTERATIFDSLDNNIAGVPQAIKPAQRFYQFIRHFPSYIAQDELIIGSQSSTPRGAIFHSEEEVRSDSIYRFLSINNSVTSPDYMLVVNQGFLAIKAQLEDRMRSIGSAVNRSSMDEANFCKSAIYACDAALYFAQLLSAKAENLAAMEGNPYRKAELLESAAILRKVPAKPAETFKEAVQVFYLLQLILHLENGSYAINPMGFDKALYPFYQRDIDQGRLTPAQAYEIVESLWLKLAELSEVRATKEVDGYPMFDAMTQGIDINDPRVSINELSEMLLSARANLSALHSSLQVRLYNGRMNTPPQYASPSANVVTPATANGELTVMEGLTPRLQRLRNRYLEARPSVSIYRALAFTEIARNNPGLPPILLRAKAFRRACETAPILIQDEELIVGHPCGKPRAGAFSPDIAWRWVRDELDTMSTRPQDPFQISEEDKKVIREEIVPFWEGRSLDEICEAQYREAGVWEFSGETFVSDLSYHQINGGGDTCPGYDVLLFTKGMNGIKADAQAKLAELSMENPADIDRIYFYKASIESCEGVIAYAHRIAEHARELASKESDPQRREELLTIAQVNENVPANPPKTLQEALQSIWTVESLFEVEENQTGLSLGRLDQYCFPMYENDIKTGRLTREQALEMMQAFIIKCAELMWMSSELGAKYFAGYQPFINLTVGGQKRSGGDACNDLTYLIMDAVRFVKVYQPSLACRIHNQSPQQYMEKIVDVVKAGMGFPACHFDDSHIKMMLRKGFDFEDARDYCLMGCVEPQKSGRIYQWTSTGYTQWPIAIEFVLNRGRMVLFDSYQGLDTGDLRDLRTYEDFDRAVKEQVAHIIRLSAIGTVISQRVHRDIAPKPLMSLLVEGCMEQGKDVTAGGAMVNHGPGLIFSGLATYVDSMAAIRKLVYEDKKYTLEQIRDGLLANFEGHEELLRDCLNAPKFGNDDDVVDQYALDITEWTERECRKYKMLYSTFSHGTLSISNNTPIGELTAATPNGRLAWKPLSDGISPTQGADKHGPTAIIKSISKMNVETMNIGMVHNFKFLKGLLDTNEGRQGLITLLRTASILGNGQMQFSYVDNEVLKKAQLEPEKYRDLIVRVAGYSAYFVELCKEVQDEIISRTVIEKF
CutC from Proteus mirabilis, sequence (B4EYG0 entry or part of it, further chain): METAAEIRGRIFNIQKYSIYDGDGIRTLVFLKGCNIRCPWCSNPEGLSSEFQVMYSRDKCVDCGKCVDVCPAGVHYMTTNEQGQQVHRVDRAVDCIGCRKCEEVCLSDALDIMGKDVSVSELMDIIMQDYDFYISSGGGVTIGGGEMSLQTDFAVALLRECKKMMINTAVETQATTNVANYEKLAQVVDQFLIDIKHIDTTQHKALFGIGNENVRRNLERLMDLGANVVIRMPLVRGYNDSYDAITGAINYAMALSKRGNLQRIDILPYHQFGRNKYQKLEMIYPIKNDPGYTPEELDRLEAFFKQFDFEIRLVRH
Text: as §1, §2, §3

[3] = tested on: CutC/D enzyme; assay: Acute mouse model (plasma TMAO on choline diet); type: in vivo, male C57BL/6 mice
Method: The following acute mouse model may be used to determine inhibition of the CutC/D enzyme and thus the inhibition of the formation of trimethylamine (TMA) from choline.
On day 1, male C57BL/6 mice were given a chemically defined diet (Tekland Global Rodent Diet 2018) containing 1.0% choline (g/g) for the duration of the experiment. Concurrently on day 1, mice were orally gavaged with 200 μL of compounds of interest (formulated in water). Mice were orally gavaged with the compounds and vehicle control again on day 2 and day 3 at a fixed time. Twenty hours after the last gavage, mice were sacrificed, and plasma was collected and prepared for detection of trimethylamine-N-oxide (TMAO) via liquid chromatography with on-line tandem mass spectrometry (LC-MS/MS). Food consumption and mouse weight were measured each day.
Plasma samples were prepared for LCMS as follows: An aliquot of 20 μL plasma sample was protein precipitated with 200 μL internal standard solution (100 ng/mL Labetalol & 100 ng/mL Tolbutamide & 100 ng/mL Diclofenac in acetonitrile, the mixture was vortex-mixed and centrifuged at 4000 rpm for 15 min, 4° C. An aliquot of 100 μL supernatant was transferred to the sample plate for LCMS injection. 1 μL of sample was injected onto an LC column for TMAO LCMS analysis.
Concentrations of TMAO were determined with a calibration curve ranging 0.05-100 μM for d9-TMAO in control plasma.

[4] = d9-TMA from 1 mM d9-choline, 5 h, 37° C.; value 10 given when no fit or % TMA remaining at 10 μM higher than 15%; read-out: Average IC50 Whole cell P. mirabilis
[5] = Table 4d, 100 mg/kg oral gavage days 1-3
[6] = Table 4d, 100 mg/kg oral gavage days 1-3, plasma 20 h after last gavage
[7] = read-out: Average IC50 Whole cell P. mirabilis; d9-TMA from 1 mM d9-choline, 5 h, 37° C.; value 10 given when no fit or % TMA remaining at 10 μM higher than 15%

Row | Compound | IC50 [2, 4] [nM] | other results
1 | C[N+]1(C)CC[C@H](O)C1 [Compound 117, (S)-3-hydroxy-1,1-dimethylpyrrolidin-1-ium Iodide] | ≥ 10000 | IC50 [1]: ≥ 10000 nM
2 | C#CC[N+](C)(C)CCO[C@@H]1OC[C@H](OC(C)=O)[C@H](OC(C)=O)[C@H]1OC(C)=O.[I-] [Compound 10, N,N-dimethyl-N-(2-(((3R,4S,5S)-3,4,5-triacetoxytetrahydro-2H-pyran-2-yl)oxy)ethyl)prop-2-yn-1-aminium Iodide] |  | % change from vehicle control + choline diet [3, 5]: −21%; Mean plasma TMAO [3, 6]: 14.9 µM
3 | C#CC[N+](C)(C)CCCCOC1O[C@@H](C)[C@@H](OC(=O)CCC)[C@@H](OC(=O)CCC)[C@@H]1OC(=O)CCC.[Br-] (stereo partly drawn) [Compound 58, N,N-dimethyl-N-(prop-2-yn-1-yl)-4-(((3S,4R,5R,6S)-3,4,5-tris(butyryloxy)-6-methyltetrahydro-2H-pyran-2-yl)oxy)butan-1-aminium bromide] |  | % change from vehicle control + choline diet ([3]; Table 4d, 10 mg/kg oral gavage days 1-3): −46%; Mean plasma TMAO ([3]; Table 4d, 10 mg/kg oral gavage days 1-3, plasma 20 h after last gavage): 10.1 µM
4 | CC(=O)OC[C@H]1OC(OCC[N+](C)(C)C2CC2)[C@H](OC(C)=O)[C@@H](OC(C)=O)[C@@H]1OC(C)=O.[I-] (stereo partly drawn) [Compound 312, N,N-dimethyl-N-(2-(((3R,4S,5R,6R)-3,4,5-triacetoxy-6-(acetoxymethyl)tetrahydro-2H-pyran-2-yl)oxy)ethyl)cyclopropanaminium iodide] |  | % change from vehicle control + choline diet ([3]; Table 4d, 35.4 mg/kg oral gavage days 1-3): −38%; Mean plasma TMAO ([3]; Table 4d, 35.4 mg/kg oral gavage days 1-3, plasma 20 h after last gavage): 11.69 µM
5 | C#CC[N+](C)(C)CC(=C)Cl.[Cl-] [Compound 185, (2-chloroprop-2-en-1-yl)dimethyl(prop-2-yn-1-yl)azanium Chloride] | 235 | % change from vehicle control + choline diet ([3]; Table 4e, 123.7 mg/kg oral gavage days 1-3): −16%; Mean plasma TMAO ([3]; Table 4e, 123.7 mg/kg oral gavage days 1-3, plasma 20 h after last gavage): 22.2 µM
6 | C=C(CO)C[N+](C)(C)C [Compound 167, (3-hydroxy-2-methylidenepropyl)trimethylazanium trifluoroacetate] | ≥ 10000 | 
7 | C[N+]12CCC(CC1)[C@H](O)C2 [Compound 148, (1s,4s)-3-hydroxy-1-methylquinuclidin-1-ium] | ≥ 10000 | 
8 | C#CC[N+](C)(C)CCOC1OC[C@@H](OC(C)=O)[C@@H](OC(C)=O)[C@H]1OC(C)=O.[Br-] (stereo partly drawn) [Compound 9, N,N-dimethyl-N-(2-(((3R,4R,5R)-3,4,5-triacetoxytetrahydro-2H-pyran-2-yl)oxy)ethyl)prop-2-yn-1-aminium bromide] |  | % change from vehicle control + choline diet [3, 5]: 80%; Mean plasma TMAO [3, 6]: 33.91 µM
9 | C[N+](C)(C)CC1CC1 [Compound 178, (cyclopropylmethyl)trimethylazanium Iodide] | ≥ 10000 | 
10 | C#CC[N+](C)(C)CCO[C@H]1CO[C@H]2[C@@H]1OC[C@H]2OCC[N+](C)(C)CC#C [Compound 71, N,N′-((((3R,3aR,6S,6aR)-hexahydrofuro[3,2-b]furan-3,6-diyl)bis(oxy))bis(ethane-2,1-diyl))bis(N,N-dimethylprop-2-yn-1-aminium) bistrifluoroacetate] | ≥ 10000 | 
11 | C#CC[N+]1(CC#C)CCCN1 [Compound 201, 1,1-bis(prop-2-yn-1-yl)pyrazolidin-1-ium Bromide] | > 10000 | 
12 | CSCC[N+](C)(C)CF [Compound 229, (fluoromethyl)dimethyl[2-(methylsulfanyl)ethyl]azanium] | > 100000 | 
13 | C#CC[N+](C)(C)CC(=C)C [Compound 208, N,N,2-trimethyl-N-(prop-2-yn-1-yl)prop-2-en-1-aminium 2,2,2-trifluoroacetate] | > 10000 | 
14 | C#CC[N+](C)(C)CCO[C@@H]1O[C@H](CO)[C@@H](O)[C@H](O)[C@H]1O [Compound 106, N,N-dimethyl-N-(2-(((3R,4S,5S,6R)-3,4,5-trihydroxy-6-(hydroxymethyl)tetrahydro-2H-pyran-2-yl)oxy)ethyl)prop-2-yn-1-aminium 2,2,2-trifluoroacetate] | ≥ 10000 | 
15 | C#CC[N+](C)(C)CSC [Compound 196, dimethyl[(methylsulfanyl)methyl](prop-2-yn-1-yl)azanium] | 7780 | 
16 | C[N+](C)(C)CC#N [Compound 169, (cyanomethyl)trimethylazanium Iodide] | ≥ 10000 | 
17 | C#CC[N+](C)(C)C[C@H](C)C(=O)OC [Compound 175, [(2S)-3-methoxy-2-methyl-3-oxopropyl]dimethyl(prop-2-yn-1-yl)azanium] | 170 | 

Row | Compound | IC50 [2, 4] [nM] | other results
18 | C#CC[N+](C)(C)CC(=O)O[C@H]1O[C@H](COC(C)=O)[C@@H](OC(C)=O)[C@H](OC(C)=O)[C@H]1OC(C)=O.O=C([O-])C(F)(F)F [Compound 19, N,N-dimethyl-N-(2-oxo-2-(((2R,3R,4S,5R,6R)-3,4,5-triacetoxy-6-(acetoxymethyl)tetrahydro-2H-pyran-2-yl)oxy)ethyl)prop-2-yn-1-aminium trifluoroacetate] | 1730 | % change from vehicle control + choline diet ([3]; Table 4a, 333 mg/kg oral gavage days 1-3): −84.29%; Mean plasma TMAO ([3]; Table 4a, 333 mg/kg oral gavage days 1-3, plasma 20 h after last gavage): 5.40 µM
19 | CC1OC1C[N+](C)(C)C (centres unmarked) [Compound 176, trimethyl[(3-methyloxiran-2-yl)methyl]azanium] | ≥ 10000 | 
20 | C[N+](C)(CCO)CCF [Compound 186, (2-fluoroethyl)(2-hydroxyethyl)dimethylazanium] |  | IC50 [2, 7]: > 10000 nM
21 | C[N+](CF)(CCO)C1CC1 (centres unmarked) [Compound 172, N-(fluoromethyl)-N-(2-hydroxyethyl)-N-methylcyclopropanaminium Iodide] | ≥ 10000 | 
22 | C#CC[N+](C)(C)Cc1ncco1 [Compound 207, dimethyl[(1,3-oxazol-2-yl)methyl](prop-2-yn-1-yl)azanium Chloride] | 310 | 
23 | C=C(C[N+](C)(C)CC#N)C(=O)OC [Compound 189, N-(cyanomethyl)-2-(methoxycarbonyl)-N,N-dimethylprop-2-en-1-aminium Bromide] | > 10000 | 
24 | C#CC[N+](C)(C)CCN [Compound 183, (2-aminoethyl)dimethyl(prop-2-yn-1-yl)azanium] | > 10000 | 
25 | C[N+]1(CF)CCC[C@@H]1CO (stereo partly drawn) [Compound 151, (2R)-1-(fluoromethyl)-2-(hydroxymethyl)-1-methylpyrrolidin-1-ium Iodide] | 890 | % change from vehicle control + choline diet ([3]; Table 4g, 116 mg/kg oral gavage days 1-3): 6%; Mean plasma TMAO ([3]; Table 4g, 116 mg/kg oral gavage days 1-3, plasma 20 h after last gavage): 29.4 µM
26 | C#CC[N+](C)(C)Cc1ncno1 [Compound 224] | 223 | 
27 | C#CC[N+](C)(C)CC#C [Compound 165, N,N-dimethyl-N-(prop-2-yn-1-yl)prop-2-yn-1-aminium Bromide] | 2130 | 
28 | C=CC[N+](C)(C)CC(=C)C(=O)OC [Compound 203, N-allyl-2-(methoxycarbonyl)-N,N-dimethylprop-2-en-1-aminium 2,2,2-trifluoroacetate] | 1720 | 
29 | CSC[N+](C)(C)CCO [Compound 195, (2-hydroxyethyl)dimethyl[(methylsulfanyl)methyl]azanium] | > 10000 | 
30 | C#CC[N+](C)(C)C[C@H](C)C(=O)O [Compound 166, (S)—N-(2-carboxypropyl)-N,N-dimethylprop-2-yn-1-aminium Chloride] | 1260 | 
31 | C#CC[N+](C)(C)CCOCCO [Compound 191, [2-(2-hydroxyethoxy)ethyl]dimethyl(prop-2-yn-1-yl)azanium] | 2170 | 
32 | C#CC[N+](C)(C)CCC(=O)NS(C)(=O)=O [Compound 215, [2-(methanesulfonylcarbamoyl)ethyl]dimethyl(prop-2-yn-1-yl)azanium] | 409 | 
33 | C[N+](C)(C)CCC[PH](=O)O [Compound 147, 3-(hydroxyhydrophosphoryl)-N,N,N-trimethylpropan-1-aminium Chloridechloridechloridechloridechloride] |  | IC50 [2, 7]: ≥ 10000 nM
